Results published in US9353101B2 (Merck Sharp & Dohme Corp., priority 2012, dated 2016).

These molecules were tested against CETP (Homo sapiens (Human), UniProt P11597) (assay: In vitro radioactive assay of CETP-catalyzed CE and TG transfer (RTA assay), 95% human serum). Details: RTA assay in 95% human serum; read-out: RTA IC50 (CETP Inhibition).
Assay type: biochemical
Protocol: In Vitro Radioactive Assays of CETP-Catalyzed CE and TG Transfer (RTA Assay)
Reagents and sources are: [3H] cholesteryl oleate (GE #TRK.886), [3H] Triolein (Perkin-Elmer NET-431), Butylated hydroxyl toluene (Aldrich, #D4740-4), DOPC (Sigma, # P6354), Sodium Bromide (Fisher scientific #S255-500), PEG 8000 (Fisher, #BP233-1), and human HDL (Intracel Corp #RP-036).
An in vitro assay for determining IC50's to identify compounds that inhibit CETP transfer activity is performed based on a modification of a published method (Morton and Zilversmit, (1981) A plasma inhibitor of triglyceride and cholesteryl ester transfer activities, J. Biol. Chem. 256(23), 11992-11995). The ability of inhibitors to alter CETP activity is performed using two different assays: one using recombinant CETP and one using an endogenous plasma source of CETP. Both assays measure the transfer of [3H] cholesteryl oleate or [3H] triolein from exogenous LDL to HDL.
Radiolabeled donor particles are generated by first combining 100 μl of 200 μM butylated hydroxyl toluene in CHCl3, 216 μL of 21.57 mM DOPC in EtOH, and either 500 μCi [3H]-triolein (Perkin Elmer #NET-431) or 500 μCi [3H]-cholesteryl oleate (GE #TRK886) in a glass tube. Reagents are mixed, dried under nitrogen, and then resuspended in 2 mL of 50 mM Tris, 27 μM EDTA at pH 7.4. After a brief vortex, the solution is sonicated until clear and mixed with 20 mL of fresh human serum. The mixture is incubated overnight at 37° C. The [3H] labeled LDL substrate is separated at 1.063 g/ml density by sequential ultracentrifugal flotation in NaBr according to the method by (Havel, Eder et al. 1955; Chapman, Goldstein et al. 1981). Once isolated the particles are dialyzed 3× in CETP buffer (50 mM Tris, pH 7.4, 100 mM NaCl, 1 mM EDTA). Human HDL is purchased from Intracel and used as the acceptor particles.
Transfer assays are performed in a 96 or 384-well v-bottom polypropylene plate. For the RTA using recombinant CETP (2% RTA), an assay cocktail is prepared with the final concentrations 128 μg/mL HDL, 20 nM rCETP, 2% human serum, and 1×CETP buffer. 1 μL of each test compound diluted in DMSO is added to 47 μL of assay cocktail per well and incubated at 37° C. for 1 hour. To initiate the transfer reaction, 2 μL radiolabeled LDL is added. After an additional 60 min of incubation at 37° C., the transfer action is terminated by precipitation of LDL with an equal volume of 20% W/V PEG 8000. The plates are centrifuged at 2000 rpm for 30 minutes at 4° C. A 40 μL aliquot of the HDL-containing supernatant is transferred to a Packard Optiplate™ with 200 μL of MicroScint™ 20. After mixing, plates are counted by liquid scintillation. Counts present in the supernatant for blanks (wells containing only HDL acceptor, CETP buffer and DMSO) are subtracted from those containing test compounds and used to correct for non-specific transfer.
For the transfer assay using endogenous CETP from serum (95% RTA), the same procedure is used except that human serum is added such that a final concentration of serum of 95% of the total assay volume is achieved, yielding a concentration of approximately 15 nM endogenous CETP in the assay. This is then combined with HDL and CETP buffer and the reaction proceeds as above and is terminated as described.
Comparison of the counts of samples with inhibitors to an uninhibited (DMSO only) positive control yield a percent inhibition. A plot of percent inhibition vs. log of inhibitor concentration, fit to a Sigmoidal 4 parameter equation is used to calculate IC50.
Starting materials are commercially available or are made using known procedures or as shown below. The examples may be synthesized using the general schemes provided below. The data reported for the examples below were obtained using the RTA assay in 95% human serum.

Sequence of CETP (P11597 18-493 limits assumed): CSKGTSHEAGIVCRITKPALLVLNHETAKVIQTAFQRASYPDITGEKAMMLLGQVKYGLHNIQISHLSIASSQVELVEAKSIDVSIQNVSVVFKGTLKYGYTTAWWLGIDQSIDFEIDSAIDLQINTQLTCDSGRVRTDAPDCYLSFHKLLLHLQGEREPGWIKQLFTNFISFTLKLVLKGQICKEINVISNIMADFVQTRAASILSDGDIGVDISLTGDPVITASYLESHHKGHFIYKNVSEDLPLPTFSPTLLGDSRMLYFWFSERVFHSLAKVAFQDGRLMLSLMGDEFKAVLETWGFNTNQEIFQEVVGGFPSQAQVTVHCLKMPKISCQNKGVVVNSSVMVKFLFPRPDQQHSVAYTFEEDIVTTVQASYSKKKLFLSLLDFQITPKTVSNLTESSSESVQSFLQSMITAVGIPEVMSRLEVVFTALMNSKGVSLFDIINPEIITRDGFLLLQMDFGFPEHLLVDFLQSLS

SMILES | IC50 [nM]
COc1ncc(C(C)(O)C(F)(F)F)cc1-c1cnc(N2CC(F)C2)nc1CN1C(=O)O[C@H](c2cc(C(F)(F)F)cc(C(F)(F)F)c2)[C@@H]1C (mixture of isomers) [Example 16, (4S,5R)-5-[3,5-Bis(trifluoromethyl)phenyl]-3-{[2-(3-fluoroazetidin-1-yl)-5-{2-methoxy-5-[(2RS)-1,1,1-trifluoro-2-hydroxypropan-2-yl]pyridin-3-yl}pyrimidin-4-yl]methyl}-4-methyl-1,3-oxazolidin-2-one] | 14
Cc1cc(C(=O)O)ccc1-c1cnc(C)c(-c2cnc(N3CC(F)C3)nc2CN2C(=O)O[C@H](c3cc(C(F)(F)F)cc(C(F)(F)F)c3)[C@@H]2C)c1 [Example 54, 4-{5-[4-({(4S,5R)-5-[3,5-Bis(trifluoromethyl)phenyl]-4-methyl-2-oxo-1,3-oxazolidin-3-yl}methyl)-2-(3-fluoroazetidin-1-yl)pyrimidin-5-yl]-6-methylpyridin-3-yl}-3-methylbenzoic acid] | 26
COc1ncc(-c2ccc(C(=O)Nc3nnn[nH]3)cc2C)cc1-c1cnc(N2CC(F)C2)nc1CN1C(=O)O[C@H](c2cc(C(F)(F)F)cc(C(F)(F)F)c2)[C@@H]1C [Example 37, 4-{5-[4-({(4S,5R)-5-[3,5-Bis(trifluoromethyl)phenyl]-4-methyl-2-oxo-1,3-oxazolidin-3-yl}methyl)-2-(3-fluoroazetidin-1-yl)pyrimidin-5-yl]-6-methoxypyridin-3-yl}-3-methyl-N-(1H-tetrazol-5-yl)benzamide] | 10
COc1ncc(-c2ccc(C(=O)O)cc2C)cc1-c1cnc(-n2ccnc2)nc1CN1C(=O)O[C@H](c2cc(C(F)(F)F)cc(C(F)(F)F)c2)[C@@H]1C [Example 43, 4-{5-[4-({(4S,5R)-5-[3,5-Bis(trifluoromethyl)phenyl]-4-methyl-2-oxo-1,3-oxazolidin-3-yl}methyl)-2-(1H-imidazol-1-yl)pyrimidin-5-yl]-6-methoxypyridin-3-yl}-3-methylbenzoic acid] | 109
CCn1nc(C)c(-c2cnc(OC)c(-c3cnc(N4CC(F)C4)nc3CN3C(=O)O[C@H](c4cc(C(F)(F)F)cc(C(F)(F)F)c4)[C@@H]3C)c2)c1C [Example 19] | 9
COc1ncc(-c2c(C)cc(C(=O)O)cc2C)cc1-c1cnc(N2CC(F)C2)nc1CN1C(=O)O[C@H](c2cc(C(F)(F)F)cc(C(F)(F)F)c2)[C@@H]1C [Example 32, 4-{5-[4-({(4S,5R)-5-[3,5-Bis(trifluoromethyl)phenyl]-4-methyl-2-oxo-1,3-oxazolidin-3-yl}methyl)-2-(3-fluoroazetidin-1-yl)pyrimidin-5-yl]-6-methoxypyridin-3-yl}-3,5-dimethylbenzoic acid] | 7
Cc1noc(C)c1-c1cnc(N2CCC2)nc1CN1C(=O)O[C@H](c2cc(C(F)(F)F)cc(C(F)(F)F)c2)[C@@H]1C [Example 64, (4S,5R)-3-{[2-(azetidin-1-yl)-5-(3,5-dimethylisoxazol-4-yl)pyrimidin-4-yl]methyl}-5-[3,5-bis(trifluoromethyl)phenyl]-4-methyl-1,3-oxazolidin-2-one] | 271
COc1ncc(-c2c(C)n[nH]c2C)cc1-c1cnc(N2CCC2)nc1CN1C(=O)O[C@H](c2cc(C(F)(F)F)cc(C(F)(F)F)c2)[C@@H]1C [Example 27] | 19
Cc1cc(C(=O)O)ccc1-c1nc(C(C)(C)C)c(-c2cnc(N3CC(F)(F)C3)nc2CN2C(=O)O[C@H](c3cc(C(F)(F)F)cc(C(F)(F)F)c3)[C@@H]2C)s1 [Example 49, 4-{5-[4-({(4S,5R)-5-[3,5-Bis(trifluoromethyl)phenyl]-4-methyl-2-oxo-1,3-oxazolidin-3-yl}methyl)-2-(3,3-difluoroazetidin-1-yl)pyrimidin-5-yl]-4-tert-butyl-1,3-thiazol-2-yl}-3-methylbenzoic acid] | 800
COc1ncc(-c2ccc(C(=O)O)cc2C)cc1-c1ccc(N2CCOCC2)nc1CN1C(=O)O[C@H](c2cc(C(F)(F)F)cc(C(F)(F)F)c2)[C@@H]1C [Example 56] | 9
Cc1cc(C(=O)O)ccc1-c1nc(C)c(-c2cnc(N3CC(F)C3)nc2CN2C(=O)O[C@H](c3cc(C(F)(F)F)cc(C(F)(F)F)c3)[C@@H]2C)s1 [Example 51, 4-{5-[4-({(4S,5R)-5-[3,5-Bis(trifluoromethyl)phenyl]-4-methyl-2-oxo-1,3-oxazolidin-3-yl}methyl)-2-(3-fluoroazetidin-1-yl)pyrimidin-5-yl]-4-methyl-1,3-thiazol-2-yl}-3-methylbenzoic acid] | 33
COc1ncc(-c2c(C)nn(C)c2C)cc1-c1cnc(N2CC(F)C2)nc1CN1C(=O)O[C@H](c2cc(C(F)(F)F)cc(C(F)(F)F)c2)[C@@H]1C [Example 6] | 3
COc1ncc(-c2c(C)cc(C(=O)O)cc2C)cc1-c1cnc(N2CCOCC2)nc1CN1C(=O)O[C@H](c2cc(C(F)(F)F)cc(C(F)(F)F)c2)[C@@H]1C [Example 34, 4-{5-[4-({(4S,5R)-5-[3,5-Bis(trifluoromethyl)phenyl]-4-methyl-2-oxo-1,3-oxazolidin-3-yl}methyl)-2-(morpholin-4-yl)pyrimidin-5-yl]-6-methoxypyridin-3-yl}-3,5-dimethylbenzoic acid] | 10
COc1ncc(-c2ccc(-c3n[nH]c(=O)o3)cc2C)cc1-c1cnc(N2CC(F)C2)nc1CN1C(=O)O[C@H](c2cc(C(F)(F)F)cc(C(F)(F)F)c2)[C@@H]1C [Example 38, 5-(4-{5-[4-({(4S,5R)-5-[3,5-Bis(trifluoromethyl)phenyl]-4-methyl-2-oxo-1,3-oxazolidin-3-yl}methyl)-2-(3-fluoroazetidin-1-yl)pyrimidin-5-yl]-6-methoxypyridin-3-yl}-3-methylphenyl)-1,3,4-oxadiazol-2(3H)-one] | 12
COc1ncc(C(C)C)cc1-c1cnc(N2[C@H](C)CC[C@H]2C)nc1CN1C(=O)O[C@H](c2cc(C(F)(F)F)cc(C(F)(F)F)c2)[C@@H]1C [Example 29] | 430
COc1ncc(-c2ccc(C(=O)O)cc2C)cc1-c1ccc(N2CC(F)C2)nc1CN1C(=O)O[C@H](c2cc(C(F)(F)F)cc(C(F)(F)F)c2)[C@@H]1C [Example 62] | 6
COc1ncc(-c2ccc(C(=O)O)cc2C)cc1-c1cnc(N2CC(F)C2)nc1CN1C(=O)O[C@H](c2cccc(OC(F)(F)F)c2)[C@@H]1C [Example 45, 4-{5-[2-(3-Fluoroazetidin-1-yl)-4-({(4S,5R)-4-methyl-2-oxo-5-[3-(trifluoromethoxy)phenyl]-1,3-oxazolidin-3-yl}methyl)pyrimidin-5-yl]-6-methoxypyridin-3-yl}-3-methylbenzoic acid] | 50
COc1ncc(-c2c(C)n[nH]c2C)cc1-c1cnc(N2CCOCC2)nc1CN1C(=O)O[C@H](c2cc(C(F)(F)F)cc(C(F)(F)F)c2)[C@@H]1C [Example 26] | 23
COc1ncc(-c2ccc(C(=O)Nc3nnn[nH]3)cc2C)cc1-c1cnc(N2CCOCC2)nc1CN1C(=O)O[C@H](c2cc(C(F)(F)F)cc(C(F)(F)F)c2)[C@@H]1C [Example 41, 4-{5-[4-({(4S,5R)-5-[3,5-Bis(trifluoromethyl)phenyl]-4-methyl-2-oxo-1,3-oxazolidin-3-yl}methyl)-2-(morpholin-4-yl)pyrimidin-5-yl]-6-methoxypyridin-3-yl}-3-methyl-N-(1H-tetrazol-5-yl)benzamide] | 11
